Test system: DLD1 cells
Experiment: Effect of anti-cancer drug on cellular acidity (AO red fluorescence, flow cytometry) and cell growth
Assay type: cell-based, human
Settings: DLD1 versus NCl/Adr cells at a given dose; AO red fluorescence after 6 hours exposure; growth 3 days after addition of drug, hemacytometer and trypan blue exclusion; FIG. 5
Protocol: Cells plated at 25% confluency were exposed to various doses of the drug for 6 hours and stained with AO (1 μg/ml, final concentration) for 30 minutes. Cells were washed 3× with PBS to remove residual stain, trypsinized to obtain a liquid suspension and assessed on a flow cytometer (FACSCalibur, Becton Dickinson San Jose Calif.). The red fluorescence of AO emanating from the cells was recorded on a linear scale in the cytometer's FL2 channel (emission filter >600 nm). A total of 30K cells were collected for post acquisition analysis with WinMDI Version 2.8 software (The Scripps Research Institute, La Jolla, Calif.). […] FIG. 5b plots the geometric mean of AO red fluorescence channel intensity against drug concentration for both DLD1 and NCl/Adr cells. In parallel cultures, cells were assessed for growth 3 days after the addition of drug (FIG. 5 c) —cells were enumerated with a hemacytometer and trypan blue exclusion staining.

CC(=O)O[C@H]1C(=O)[C@@]2(C)[C@H]([C@H](OC(=O)c3ccccc3)[C@]3(O)C[C@H](OC(=O)[C@H](O)[C@@H](NC(=O)c4ccccc4)c4ccccc4)C(C)=C1C3(C)C)[C@]1(OC(C)=O)CO[C@@H]1C[C@@H]2O [paclitaxel]
sensitivity of cancer cells to the drug (cell growth, reflected by acidic content of cells): DLD1 cells are more sensitive to paclitaxel than NCl/Adr

Reference: US20120040394A1, “MICROTUMOURS” (priority 2008, published 2012)
